Test results from US20120071475A1, “UREA DERIVATIVES HAVING PI3K-INHIBITING ACTIVITY” (SHIONOGI & CO., LTD., priority 2009, published 2012).
In brackets after ≈: the same amount, converted by molar mass. Read-outs that look alike come from different tables or passages of the source.

Experiments:
PI3Kγ [1] = target: T1, PI3Kγ (Homo sapiens, UniProt P48736); test: PI3Kγ inhibitory activity (PI3-kinase HTRF assay, inhibition ratio); format: biochemical; conditions: 0.5 h, compound at 10 μmol/L; read-out: PI3Kg Inhibition Ratio % (10 μM)
How it was run: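 Compound at 10 μmol/L preincubated 10 min with PI3Kγ and PIP2 substrate, then reacted with ATP for 30 minutes at room temperature; the compound, substrate and ATP figures as printed (40 μmol/L each) are solution concentrations. HTRF 665/620 nm ratio read after 18 hours. Inhibition ratio calculated against no-compound (100%) and no-enzyme (0%) controls.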

[2] = Metabolic stability test (pooled human liver microsome); format: in vitro ADME; conditions: percentage of test compound remained after 30 minutes, pooled human liver microsome 0.5 mg protein/mL, 1 mmol/L NADPH, 37° C.; for hLMS_ox(at 0.5 μM) %: compound 0.5 μM
How it was run: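 Pooled human liver microsomes (0.5 mg protein/mL) incubated with compound and 1 mmol/L NADPH at 37° C. in pH 7.4 Tris buffer for 0 or 30 min. Parent quantified by LC/MS/MS after methanol/acetonitrile quench; value is % remaining at 30 min versus 0 min.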

[3] = Solubility test (artificial intestinal juice pH 6.8, 1% DMSO); format: physicochemical; conditions: artificial intestinal juice pH 6.8 with 1% DMSO, fassgf or other biorelevant, kinetic from dmso stock, 25° C.
Protocol: The solubility of a compound was determined under a condition in which 1% DMSO was added. 10 mmol/L compound solution was prepared using DMSO, and then 6 μL of the compound solution was added to 594 μL of artificial intestinal juice in pH 6.8 (to 250 mL of 0.2 mol/L potassium dihydrogen phosphate reagent solution was added 118 mL of 0.2 mol/L NaOH reagent solution and water to provide a final volume of 1000 mL). After standing at 25° C. for 16 hours, the mixed solution was filtered with suction. The filtrate was diluted twice with methanol/water (1/1), and then a concentration in the filtration was measured with HPLC or LC/MS/MS by the absolute calibration method.

PI3Kδ = PI3Kδ (Homo sapiens, UniProt O00329); test: PI3Kδ inhibitory activity (Ki value); format: biochemical
Protocol: (§1) According to Example 2 above, after 80 μg/mL PI-3 kinase γ of the enzyme solution (80 μg/mL PI-3 kinase γ, 10 mmol/L MgCl2, 5 mmol/L DTT) was changed to 158 μg/mL PI-3 kinase δ, a method similar to the method for measuring PI3Kγ inhibitory activity was used to calculate an inhibition ratio, which was defined as the PI3Kδ inhibitory activity.
According to Example 4 above, a Km value for PI3Kδ was determined to calculate a Ki value.

PI3Kβ = PI3Kβ (Homo sapiens, UniProt P42338); test: PI3Kβ inhibitory activity (Ki value); format: biochemical
Protocol: as §1, with “60” for “158”, “β,” for “δ,”, “PI3Kβ” for “PI3Kδ”
According to Example 4 above, a Km value for PI3Kβ was determined to calculate a Ki value.

PI3Kα = PI3Kα (Homo sapiens, UniProt P42336); test: PI3Kα inhibitory activity (Ki value); format: biochemical
Protocol: as §1, with “0.8” for “158”, “α, an inhibition ratio was calculated by” for “δ,”, “activity, and then” for “activity was used to calculate an inhibition ratio, which was”, “PI3Kα” for “PI3Kδ”
The α inhibitory activity (Ki value) of a compound was evaluated according to the following procedure.
According to Example 4 above, a Km value for PI3Kα was determined to calculate a Ki value.

CYP3A4 = target: T2, CYP3A4 (Homo sapiens, UniProt P08684); test: CYP3A4 fluorescence MBI test; format: in vitro ADME; conditions: difference in IC50 with 0 or 30 minutes pre-reaction; CYP3A4 expressed in E. coli, substrate 7-BFC
T2 construct: host or cells: E. coli
How it was run: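 E. coli-expressed CYP3A4 debenzylating 5.6 μmol/L 7-BFC to fluorescent 7-HFC (Ex 420/Em 535 nm) in K-Pi pH 7.4 at 25° C, 15 min reaction. NADPH pre-incubation of 0 or 30 min, with 10-fold dilution before reaction. IC50 from 0.625–20 μmol/L (6 points); (+) for an IC50 shift ≥5 μmol/L, (−) for ≤3 μmol/L.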

PI3Kγ [4] = target: T1, PI3Kγ; test: PI3Kγ inhibitory activity (Ki value); format: biochemical
Protocol: The PI3Kγ inhibitory activity (Ki value) of a compound was evaluated according to the following procedure:
5 μL of a compound solution containing 10% DMSO and […] of a compound was changed to 5 μL of a compound solution containing 10% DMSO and either 200, 64, 20, 6.4, 2, 0.64, or 0.20 μmol/L of the compound (optionally, this is diluted to a lower concentration). Using a method similar to the method for measuring PI3Kγ inhibitory activity, inhibition ratios of PI3Kγ were measured in the presence of the compound at 50, 16, 5, 1.6, 0.5, 0.16, and 0.05 μmol/L (optionally, a lower concentration). Then an IC50 value was calculated by a logistic approximation method or the linear regression method using two concentrations that cross 50% inhibition. Separately, the ATP concentration in the reaction solution (40 μmol/L ATP, 10 mmol/L MgCl2, 5 mmol/L DTT) at the time of the start of a reaction in the absence of the compound was changed to 80, 40, 20, 10, 5, 2.5, 1.25, or 0.625 μmol/L. Then, HTRF ratios were measured by a similar method. The value obtained by subtracting the HTRF ratio at each ATP concentration from the HTRF ratio in the absence of PI-3 kinase y was defined as the value obtained by multiplying reaction rate (v) at each ATP concentration with a constant. The Michaelis-Menten constant Km was then calculated by the Lineweaver-Burk plot method. The Ki value of a compound was calculated by the following formula wherein “μM” denotes “μmol/L.”
Ki value ═IC50 value/(1+test ATP concentration (μM)/Km (μM))

hERG channel (IKr) = target: T3, hERG channel (IKr) (Homo sapiens, UniProt Q12809); test: hERG test (whole-cell patch-clamp, IKr in HEK293 cells); format: cell-based; conditions: human, HEK293 cells expressing hERG channel, pH 7.4, inhibition of maximum tail current (IKr), compound 1 μM
T3 construct: expressed in transfected cells; host or cells: HEK293
How it was run: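 hERG-expressing HEK293 cells, automated whole-cell patch clamp: hold −80 mV, +50 mV for 2 s, then −50 mV for 2 s to record IKr tail current. Compound in extracellular solution (pH 7.4) for 10 min at room temperature; inhibition of maximum tail current calculated versus pre-application and compared with 0.1% DMSO vehicle.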

AKT phosphorylation = AKT phosphorylation inhibitory activity in MCP-1 stimulated THP-1 cells (sandwich ELISA); format: cell-based, Human; conditions: Homo sapiens, compound at 1 μmol/L, MCP-1 stimulation, read-out: AKT phosphorylation inhibition ratio
How it was run: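 THP-1 cells (6.7×10^6/mL in HBSS) were preincubated with compound at 1 μmol/L for 5 min at 37 °C, then stimulated for 60 s with HBSS containing 1.2 μg/mL MCP-1 and lysed. Phospho-Akt Ser473/AKT1 sandwich ELISA was read at A450. % inhibition: no compound = 100% activity, no MCP-1 = 0%.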

[5] = class symbols, read-out: PI3K δ Ki
[6] = class symbols, read-out: PI3K β Ki
[7] = class symbols, read-out: PI3K α Ki
[8] = class symbols, read-out: PI3K γ Ki

T1 sequence (P48736 whole entry, species assumed): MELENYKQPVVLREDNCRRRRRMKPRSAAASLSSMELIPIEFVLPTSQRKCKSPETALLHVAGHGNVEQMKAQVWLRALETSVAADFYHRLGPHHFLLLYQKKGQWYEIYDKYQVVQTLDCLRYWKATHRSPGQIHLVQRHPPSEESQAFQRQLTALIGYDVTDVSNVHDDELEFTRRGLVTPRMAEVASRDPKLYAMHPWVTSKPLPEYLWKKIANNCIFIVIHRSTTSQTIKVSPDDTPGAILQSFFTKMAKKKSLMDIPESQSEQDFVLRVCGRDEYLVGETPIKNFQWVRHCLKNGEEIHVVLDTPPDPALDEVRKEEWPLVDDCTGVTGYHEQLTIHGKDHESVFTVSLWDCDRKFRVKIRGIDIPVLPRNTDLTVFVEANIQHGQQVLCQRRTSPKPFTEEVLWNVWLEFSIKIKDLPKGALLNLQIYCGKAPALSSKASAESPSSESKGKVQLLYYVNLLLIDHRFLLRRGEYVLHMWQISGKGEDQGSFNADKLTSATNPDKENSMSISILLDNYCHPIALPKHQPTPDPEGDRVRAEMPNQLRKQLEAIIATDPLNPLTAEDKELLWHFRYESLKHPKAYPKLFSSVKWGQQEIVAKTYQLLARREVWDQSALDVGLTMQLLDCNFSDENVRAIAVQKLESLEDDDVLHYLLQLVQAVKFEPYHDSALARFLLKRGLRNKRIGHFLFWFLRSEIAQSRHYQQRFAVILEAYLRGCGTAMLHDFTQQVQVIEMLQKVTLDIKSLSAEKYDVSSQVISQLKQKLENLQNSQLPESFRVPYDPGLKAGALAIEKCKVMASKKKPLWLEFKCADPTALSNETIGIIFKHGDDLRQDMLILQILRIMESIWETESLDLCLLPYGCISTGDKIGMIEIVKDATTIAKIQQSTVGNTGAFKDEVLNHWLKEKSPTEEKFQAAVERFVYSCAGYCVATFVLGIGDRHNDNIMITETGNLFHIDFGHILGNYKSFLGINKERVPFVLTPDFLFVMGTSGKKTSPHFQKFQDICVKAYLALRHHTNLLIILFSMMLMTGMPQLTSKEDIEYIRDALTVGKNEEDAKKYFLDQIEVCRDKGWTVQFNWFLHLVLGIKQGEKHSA
Chain of PI3Kδ (O00329 whole entry, species assumed): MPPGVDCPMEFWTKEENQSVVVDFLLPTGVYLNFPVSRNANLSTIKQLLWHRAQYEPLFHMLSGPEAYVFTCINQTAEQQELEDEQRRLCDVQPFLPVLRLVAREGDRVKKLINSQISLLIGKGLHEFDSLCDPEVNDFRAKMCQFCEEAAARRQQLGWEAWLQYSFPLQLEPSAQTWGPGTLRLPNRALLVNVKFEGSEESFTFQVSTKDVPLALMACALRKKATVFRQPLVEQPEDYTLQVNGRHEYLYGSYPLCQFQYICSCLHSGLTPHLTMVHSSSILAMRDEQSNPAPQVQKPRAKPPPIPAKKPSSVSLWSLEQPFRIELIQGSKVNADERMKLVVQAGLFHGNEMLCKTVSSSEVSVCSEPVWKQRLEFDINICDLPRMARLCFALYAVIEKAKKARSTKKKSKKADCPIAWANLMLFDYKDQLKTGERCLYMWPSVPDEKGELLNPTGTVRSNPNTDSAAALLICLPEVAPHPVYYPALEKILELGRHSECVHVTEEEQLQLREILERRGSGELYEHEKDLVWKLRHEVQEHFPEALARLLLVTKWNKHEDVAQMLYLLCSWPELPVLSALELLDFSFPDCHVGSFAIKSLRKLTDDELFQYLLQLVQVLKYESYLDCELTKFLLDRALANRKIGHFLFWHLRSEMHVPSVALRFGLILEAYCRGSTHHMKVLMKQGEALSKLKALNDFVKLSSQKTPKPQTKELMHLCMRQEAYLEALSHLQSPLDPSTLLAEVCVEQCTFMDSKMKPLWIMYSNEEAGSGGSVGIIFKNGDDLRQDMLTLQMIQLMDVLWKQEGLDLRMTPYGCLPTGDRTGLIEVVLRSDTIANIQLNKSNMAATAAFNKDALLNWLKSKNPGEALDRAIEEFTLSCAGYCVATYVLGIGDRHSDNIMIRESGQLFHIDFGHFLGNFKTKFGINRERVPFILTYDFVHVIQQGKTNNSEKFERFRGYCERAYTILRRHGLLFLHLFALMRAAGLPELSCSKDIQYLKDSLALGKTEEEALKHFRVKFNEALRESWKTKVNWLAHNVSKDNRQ
Chain of PI3Kδ (P27986 whole entry partner, species assumed): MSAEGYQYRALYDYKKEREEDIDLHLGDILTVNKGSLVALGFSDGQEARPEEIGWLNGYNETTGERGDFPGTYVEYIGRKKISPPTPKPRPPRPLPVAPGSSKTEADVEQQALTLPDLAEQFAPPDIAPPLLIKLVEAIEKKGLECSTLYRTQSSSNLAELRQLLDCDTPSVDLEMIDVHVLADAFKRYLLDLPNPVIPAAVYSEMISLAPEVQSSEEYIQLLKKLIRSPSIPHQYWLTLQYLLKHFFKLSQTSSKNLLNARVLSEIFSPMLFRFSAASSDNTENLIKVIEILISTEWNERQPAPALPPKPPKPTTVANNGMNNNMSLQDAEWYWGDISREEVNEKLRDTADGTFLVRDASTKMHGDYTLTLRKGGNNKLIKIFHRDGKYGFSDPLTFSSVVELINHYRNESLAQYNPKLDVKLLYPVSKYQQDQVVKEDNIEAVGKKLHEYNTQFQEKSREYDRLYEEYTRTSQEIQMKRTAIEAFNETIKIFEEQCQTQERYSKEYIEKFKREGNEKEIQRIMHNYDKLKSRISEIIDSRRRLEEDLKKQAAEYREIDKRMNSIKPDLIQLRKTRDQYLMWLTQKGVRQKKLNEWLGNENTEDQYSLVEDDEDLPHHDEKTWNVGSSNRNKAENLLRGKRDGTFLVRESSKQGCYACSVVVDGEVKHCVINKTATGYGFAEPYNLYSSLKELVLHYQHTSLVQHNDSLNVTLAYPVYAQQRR
Chain of PI3Kβ (P42338 whole entry, species assumed): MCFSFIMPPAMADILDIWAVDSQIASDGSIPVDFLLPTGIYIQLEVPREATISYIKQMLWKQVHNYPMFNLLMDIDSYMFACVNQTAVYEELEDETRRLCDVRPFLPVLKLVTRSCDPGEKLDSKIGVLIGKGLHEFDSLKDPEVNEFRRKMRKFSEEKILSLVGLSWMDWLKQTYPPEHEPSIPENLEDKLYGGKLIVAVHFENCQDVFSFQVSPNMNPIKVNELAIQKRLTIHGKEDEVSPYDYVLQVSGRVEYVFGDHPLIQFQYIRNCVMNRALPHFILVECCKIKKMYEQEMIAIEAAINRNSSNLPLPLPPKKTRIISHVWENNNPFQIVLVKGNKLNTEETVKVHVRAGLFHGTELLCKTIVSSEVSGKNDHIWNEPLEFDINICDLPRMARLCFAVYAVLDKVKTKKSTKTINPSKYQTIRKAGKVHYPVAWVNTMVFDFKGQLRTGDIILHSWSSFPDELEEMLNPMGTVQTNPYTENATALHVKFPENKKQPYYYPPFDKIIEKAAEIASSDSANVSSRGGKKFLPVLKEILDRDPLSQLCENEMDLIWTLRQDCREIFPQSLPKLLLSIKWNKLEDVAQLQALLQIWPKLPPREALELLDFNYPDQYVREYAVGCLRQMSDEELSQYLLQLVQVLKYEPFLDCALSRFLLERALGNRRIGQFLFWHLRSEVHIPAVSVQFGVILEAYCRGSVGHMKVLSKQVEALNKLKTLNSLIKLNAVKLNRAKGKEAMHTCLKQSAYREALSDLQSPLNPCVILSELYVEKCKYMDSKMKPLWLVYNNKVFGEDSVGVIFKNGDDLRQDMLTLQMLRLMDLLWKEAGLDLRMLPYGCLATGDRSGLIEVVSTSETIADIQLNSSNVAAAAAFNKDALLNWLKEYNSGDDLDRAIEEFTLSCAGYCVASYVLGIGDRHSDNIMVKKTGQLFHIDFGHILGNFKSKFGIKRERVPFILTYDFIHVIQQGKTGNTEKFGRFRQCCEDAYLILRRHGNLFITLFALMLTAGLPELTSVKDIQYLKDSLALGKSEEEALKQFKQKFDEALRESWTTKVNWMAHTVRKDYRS
Chain of PI3Kβ (P27986 whole entry partner, species assumed): as the sequence (P27986 whole entry partner, species assumed) above
Chain of PI3Kα (P42336 whole entry, species assumed): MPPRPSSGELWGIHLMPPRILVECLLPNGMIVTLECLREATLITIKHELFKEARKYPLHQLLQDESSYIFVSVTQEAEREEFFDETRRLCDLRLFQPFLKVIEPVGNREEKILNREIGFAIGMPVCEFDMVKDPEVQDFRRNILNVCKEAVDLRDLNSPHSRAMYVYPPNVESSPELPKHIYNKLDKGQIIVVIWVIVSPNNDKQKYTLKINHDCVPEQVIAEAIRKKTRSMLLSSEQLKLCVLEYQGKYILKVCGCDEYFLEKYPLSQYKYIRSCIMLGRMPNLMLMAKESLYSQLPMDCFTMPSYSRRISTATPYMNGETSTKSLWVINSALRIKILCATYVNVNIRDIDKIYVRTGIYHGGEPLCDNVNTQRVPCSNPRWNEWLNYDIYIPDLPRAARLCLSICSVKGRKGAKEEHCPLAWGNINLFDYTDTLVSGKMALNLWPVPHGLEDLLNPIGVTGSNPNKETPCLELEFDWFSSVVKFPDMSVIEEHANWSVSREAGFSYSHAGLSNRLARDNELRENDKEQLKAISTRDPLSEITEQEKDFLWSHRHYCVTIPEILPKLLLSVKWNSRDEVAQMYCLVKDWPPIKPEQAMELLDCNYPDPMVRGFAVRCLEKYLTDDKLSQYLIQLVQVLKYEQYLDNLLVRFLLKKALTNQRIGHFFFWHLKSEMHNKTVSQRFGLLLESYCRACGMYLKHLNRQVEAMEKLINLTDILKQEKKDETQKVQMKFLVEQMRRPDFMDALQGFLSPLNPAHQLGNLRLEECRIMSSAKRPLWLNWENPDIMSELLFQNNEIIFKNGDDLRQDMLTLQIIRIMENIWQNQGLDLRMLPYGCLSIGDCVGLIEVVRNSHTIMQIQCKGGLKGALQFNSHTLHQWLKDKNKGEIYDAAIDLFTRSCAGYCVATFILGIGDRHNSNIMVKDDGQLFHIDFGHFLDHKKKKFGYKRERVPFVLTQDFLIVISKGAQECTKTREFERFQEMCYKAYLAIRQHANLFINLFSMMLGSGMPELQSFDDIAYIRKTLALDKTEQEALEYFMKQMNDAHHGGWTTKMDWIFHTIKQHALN
Chain of PI3Kα (P27986 whole entry partner, species assumed): as the sequence (P27986 whole entry partner, species assumed) above

Structure (SMILES)	inhibition at 10 µM (PI3Kγ [1]) [%]	solubility at 16 h [3] [µM]	Ki (PI3Kδ; [5]) [nM]	Ki (PI3Kβ; [6]) [nM]	Ki (PI3Kα; [7]) [nM]	Ki (PI3Kγ [4]; [8]) [nM]	Ki (PI3Kγ [4]; read-out: PI3Kγ Ki value) [nM]	other results
COc1cc(N2CCc3nc(NC(=O)Nc4ccsc4C(=O)O)sc3C2)nc(OC)n1 [Compound I-4]	72	12.3 (≈ 5.69 µg/mL)	–	–	–	–	–	hLMS_ox(at 2 μM) % ([2]; compound 2 μM): 103%
COc1cc(N2CCc3nc(NC(=O)Nc4ccccc4C4=NC(C)(C)CO4)sc3C2)nc(OC)n1 [Compound I-14]	94	–	> 3000	> 3000	> 3000	≤ 300	54	MBI (CYP3A4): (−) (When 3 μmol/L or less, the compound is shown as (−))
COc1cc(N2CCc3nc(NC(=O)Nc4ccccc4OCCN(C)C)sc3C2)nc(OC)n1 [Compound I-76]	–	26.3 (≈ 13.1 µg/mL)	–	–	–	–	–	–
COc1cc(C2(F)CCc3nc(NC(=O)Nc4ccccc4C(=O)NC(C)C)sc3C2)nc(OC)n1 (stereo not drawn) [Compound I-83]	≥ 95	–	> 3000	> 3000	> 3000	≤ 300	110	Ki (PI3Kδ; read-out: PI3Kδ Ki value): > 12000 nM; Ki (PI3Kβ; read-out: PI3Kβ Ki value): > 12000 nM; hLMS_ox(at 0.5 μM) % [2]: 89.1%; Ki (PI3Kα; read-out: PI3Kα Ki value): > 13000 nM; inhibition at 10 min, 1 µM (hERG channel (IKr)): 3.3%
COc1cc(N2CCc3nc(NC(=O)Nc4ccccc4OCCC(C)(C)C(=O)O)sc3C2)nc(OC)n1 [Compound I-100]	≥ 95	34.4 (≈ 18.7 µg/mL)	–	–	–	–	–	hLMS_ox(at 0.5 μM) % [2]: 89.3%
COc1cc(N2CCc3nc(NC(=O)Nc4ccccc4C(=O)NC(C)CO)sc3C2)cnc1OC (stereo not drawn) [Compound I-104]	–	39.6 (≈ 20.3 µg/mL)	–	–	–	–	–	hLMS_ox(at 0.5 μM) % [2]: 103%
CC(C)CCOc1ccccc1NC(=O)Nc1cc2n(n1)CCN2c1ccc2c(c1)CCN(C)C2=O [Compound I-112]	–	–	≤ 3000	> 3000	> 3000	≤ 3000	1100	Ki (PI3Kδ; read-out: PI3Kδ Ki value): 2100 nM; Ki (PI3Kβ; read-out: PI3Kβ Ki value): > 11000 nM; Ki (PI3Kα; read-out: PI3Kα Ki value): 7500 nM
COc1nc(Cl)cc(N2CCc3nc(NC(=O)Nc4ccccc4C(=O)NC4CCCC4O)sc3C2)n1 (stereo not drawn) [Compound I-174]	≥ 95	–	≤ 3000	≤ 3000	> 3000	≤ 30	3.6	inhibition at 1 µM (AKT phosphorylation): 81%
COc1cncc(-c2ccc3nc(NC(=O)Nc4ccccc4OCCC(C)C)nn3c2)c1 [Compound I-216]	≥ 95	–	> 3000	≤ 3000	> 3000	≤ 300	230	–
CC(=O)c1cccc(-c2cc(NC(=O)Nc3ccccc3C(=O)NC(C)C)nn2C)c1 [Compound I-227]	87	36.8 (≈ 15.4 µg/mL)	–	–	–	–	–	–

Now from value to compound, other results behind:

inhibition at 10 µM (PI3Kγ [1]) [%]	solubility at 16 h [3] [µM]	Ki (PI3Kδ; [5]) [nM]	Ki (PI3Kβ; [6]) [nM]	Ki (PI3Kα; [7]) [nM]	Ki (PI3Kγ [4]; [8]) [nM]	Ki (PI3Kγ [4]; read-out: PI3Kγ Ki value) [nM]	Structure (SMILES)	other results
≥ 95	15.4 (≈ 7.88 µg/mL)	–	–	–	–	–	COc1cc(N2CCc3nc(NC(=O)Nc4ccccc4C(=O)N(C)C(C)C)sc3C2)nc(OC)n1 [Compound I-13]	–
≥ 95	–	≤ 3000	≤ 3000	> 3000	≤ 300	47	COc1cc(N2CCc3nc(NC(=O)NC4=C(C(=O)NC(C)(C)C)CCC4)sc3C2)nc(OC)n1 [Compound I-28]	–
–	–	≤ 3000	> 3000	> 3000	≤ 3000	2300	CC(C)CCc1ccccc1NC(=O)Nc1cc2n(n1)CCN2c1ccc2c(c1)CCN(C)C2=O [Compound I-113]	–
–	–	≤ 300	≤ 3000	> 3000	≤ 30	25	COc1cccc(-c2ccc3nc(NC(=O)Nc4ccccc4C(=O)NC(C)C)cn3n2)c1 [Compound I-123]	–
–	–	≤ 300	≤ 300	≤ 3000	≤ 30	13	CC(C)NC(=O)c1ccccc1NC(=O)Nc1cn2nc(-c3cccc(S(C)(=O)=O)c3)ccc2n1 [Compound I-125]	hLMS_ox(at 0.5 μM) % [2]: 103%; inhibition at 10 min, 1 µM (hERG channel (IKr)): 1.3%
–	–	≤ 3000	≤ 3000	> 3000	≤ 300	61	CC(C)CCOc1ccccc1NC(=O)Nc1cn2nc(-c3cccc(S(C)(=O)=O)c3)ccc2n1 [Compound I-126]	–
–	> 50	–	–	–	–	–	COc1cc(N2CCc3nc(NC(=O)NN4CCC[C@H]4C(=O)NC(C)C)sc3C2)nc(OC)n1 [Compound I-179]	–
–	–	> 3000	> 3000	> 3000	≤ 300	58	COc1cc(-c2ccc3nc(NC(=O)Nc4ccccc4OCCC(C)C)sc3c2)nc(OC)n1 [Compound I-213]	–
≥ 95	–	> 3000	≤ 300	> 3000	≤ 30	15	COc1cncc(-c2ccc3nc(NC(=O)Nc4ccccc4OCCC(C)C)sc3n2)c1 [Compound I-225]	MBI (CYP3A4): (−) (When 3 μmol/L or less, the compound is shown as (−))
≥ 95	–	> 3000	> 3000	> 3000	≤ 30	9.4	Cc1cc(N2Cc3sc(NC(=O)Nc4ccccc4C(=O)NC(C)C)nc3C(C)C2)nc(Cl)n1 (stereo not drawn) [Compound I-229]	–
